Results published in the NIST ThermoML archive (doi:10.1016/j.jct.2010.08.021).

Assay: mn = molality of the nth substance listed, in mol/kg
Conditions: 101 kPa, Liquid; for speed of sound: Sing-around technique in a fixed-path interferometer; for mass density: Vibrating tube method

NCC(=O)O [2-aminoacetic acid] + O
Conditions	mass density [kg/m3]	speed of sound [m/s]
288.15 K, m1 = 0.0303	1000.1	1468.3
288.15 K, m1 = 0.0407	1000.43	1468.9
288.15 K, m1 = 0.0487	1000.69	1469.4
288.15 K, m1 = 0.0549	1000.89	1469.7
288.15 K, m1 = 0.0649	1001.22	1470.3
288.15 K, m1 = 0.066	1001.25	1470.3
288.15 K, m1 = 0.0799	1001.7	1471.1
288.15 K, m1 = 0.0959	1002.22	1472
288.15 K, m1 = 0.1125	1002.76	1472.9
288.15 K, m1 = 0.1349	1003.48	1474.1
288.15 K, m1 = 0.1608	1004.3	1475.5
288.15 K, m1 = 0.1908	1005.26	1477.2
288.15 K, m1 = 0.2165	1006.07	1478.6
288.15 K, m1 = 0.2303	1006.51	1479.4
288.15 K, m1 = 0.2506	1007.15	1480.5
288.15 K, m1 = 0.2735	1007.87	1481.8
293.15 K, m1 = 0.0303	999.187	1484.4
293.15 K, m1 = 0.0407	999.52	1484.9
293.15 K, m1 = 0.0487	999.773	1485.4
293.15 K, m1 = 0.0549	999.972	1485.7
293.15 K, m1 = 0.0649	1000.29	1486.2
293.15 K, m1 = 0.066	1000.32	1486.3
293.15 K, m1 = 0.0799	1000.77	1487
293.15 K, m1 = 0.0959	1001.28	1487.9
293.15 K, m1 = 0.1125	1001.81	1488.8
293.15 K, m1 = 0.1349	1002.52	1489.9
293.15 K, m1 = 0.1608	1003.34	1491.3
293.15 K, m1 = 0.1908	1004.28	1493
293.15 K, m1 = 0.2165	1005.08	1494.4
293.15 K, m1 = 0.2303	1005.52	1495.1
293.15 K, m1 = 0.2506	1006.15	1496.2
293.15 K, m1 = 0.2735	1006.86	1497.4
298.15 K, m1 = 0.0303	–	1498.6
298.15 K, m1 = 0.0407	998.344	1499.1
298.15 K, m1 = 0.0487	–	1499.5
298.15 K, m1 = 0.0549	998.79	1499.9
298.15 K, m1 = 0.0649	999.104	1500.4
298.15 K, m1 = 0.066	999.138	1500.4
298.15 K, m1 = 0.0799	999.58	1501.2
298.15 K, m1 = 0.0959	1000.09	1502
298.15 K, m1 = 0.1125	1000.61	1502.9
298.15 K, m1 = 0.1349	1001.31	1504
298.15 K, m1 = 0.1608	1002.12	1505.3
298.15 K, m1 = 0.1908	1003.05	1506.9
298.15 K, m1 = 0.2165	1003.84	1508.2
298.15 K, m1 = 0.2303	1004.27	1508.9
298.15 K, m1 = 0.2506	1004.9	1510
298.15 K, m1 = 0.2735	1005.61	1511.2
303.15 K, m1 = 0.0303	996.608	1510.9
303.15 K, m1 = 0.0407	996.933	1511.4
303.15 K, m1 = 0.0487	–	1511.8
303.15 K, m1 = 0.0549	997.375	1512.2
303.15 K, m1 = 0.0649	–	1512.7
303.15 K, m1 = 0.066	–	1512.7
303.15 K, m1 = 0.0799	998.158	1513.4
303.15 K, m1 = 0.0959	998.661	1514.3
303.15 K, m1 = 0.1125	999.18	1515.1
303.15 K, m1 = 0.1349	999.878	1516.2
303.15 K, m1 = 0.1608	1000.67	1517.5
303.15 K, m1 = 0.1908	1001.6	1519
303.15 K, m1 = 0.2165	1002.38	1520.3
303.15 K, m1 = 0.2303	1002.81	1521
303.15 K, m1 = 0.2506	1003.43	1522
303.15 K, m1 = 0.2735	1004.13	1523.2
308.15 K, m1 = 0.0303	994.983	1521.5
308.15 K, m1 = 0.0407	–	1522
308.15 K, m1 = 0.0487	995.552	1522.5
308.15 K, m1 = 0.0549	–	1522.8
308.15 K, m1 = 0.0649	–	1523.3
308.15 K, m1 = 0.066	–	1523.3
308.15 K, m1 = 0.0799	–	1524
308.15 K, m1 = 0.0959	997.02	1524.8
308.15 K, m1 = 0.1125	997.536	1525.6
308.15 K, m1 = 0.1349	998.23	1526.7
308.15 K, m1 = 0.1608	999.021	1528
308.15 K, m1 = 0.1908	999.936	1529.5
308.15 K, m1 = 0.2165	1000.72	1530.7
308.15 K, m1 = 0.2303	1001.14	1531.4
308.15 K, m1 = 0.2506	1001.76	1532.4
308.15 K, m1 = 0.2735	1002.45	1533.5
313.15 K, m1 = 0.0303	993.159	1530.6
313.15 K, m1 = 0.0407	993.481	1531.1
313.15 K, m1 = 0.0487	993.725	1531.5
313.15 K, m1 = 0.0549	993.917	1531.8
313.15 K, m1 = 0.0649	994.224	1532.3
313.15 K, m1 = 0.066	994.257	1532.3
313.15 K, m1 = 0.0799	994.689	1533
313.15 K, m1 = 0.0959	995.187	1533.8
313.15 K, m1 = 0.1125	–	1534.6
313.15 K, m1 = 0.1349	–	1535.6
313.15 K, m1 = 0.1608	–	1536.9
313.15 K, m1 = 0.1908	998.083	1538.3
313.15 K, m1 = 0.2165	–	1539.5
313.15 K, m1 = 0.2303	999.28	1540.2
313.15 K, m1 = 0.2506	999.893	1541.2
313.15 K, m1 = 0.2735	1000.58	1542.3
